Assay results as given in patent publication US9024043B2, “Pimarane diterpenes from Anisochilus verticillatus” (Council of Scientific & Industrial Research, priority 2011, dated 2015).
In brackets after ≈: the same amount, converted by molar mass. Entries after “also recorded” stand apart in the source; their conditions may differ.

How the values were obtained:
[1] = tested on: Mycobacterium tuberculosis H37Ra; experiment: Anti-mycobacterial activity (XTT-menadione assay); type: cell-based; settings: for inhibition at 100 µg/mL: read-out: % inhibition at 100 μg/ml against M. tuberculosis (footnote c); for antimycobacterial activity against M. tuberculosis (in words): in vitro; for IC90: concentration exhibiting 90% inhibition against growth, H37Ra, 8th day of incubation, read-out: IC90 value determined against M. tuberculosis
Protocol: All the isolated compounds and whole acetone extract were tested for their in vitro effect against Mycobacterium tuberculosis H37Ra culture maintained in-house.
M. tuberculosis, H37Ra (ATCC 25177) cells were grown to logarithmic phase (O.D.595˜1.0) in a defined medium (M. pheli medium) under aerobic conditions in a shaker incubator (Thermo Electron Corporation Model 481) maintained at 150 rpm and 37° C. After growth, the culture was sonicated for 2 min using a water bath sonicator. Sonicated cells were used for inoculation in micro plate wells. 250 μl of the culture containing ˜10 5 cells/ml was added to each well of 96 well plates. 2.5 μl of the test samples dissolved in DMSO was added to the wells to attain a final concentration of 100 ug/ml respectively for the preliminary screening. Dose response curve of the active compounds was carried out by making serial dilutions of the test samples. Then, the plate was incubated in a CO2 incubator at 37° C. The plate was taken out on the 8th day of incubation to measure the viable cell counts. The optical density of the culture was measured before addition of XTT at 470 nm which was served as a blank for the MIC calculations. 200 μM XTT was added and incubated for 20 min at 37° C. after shaking for 1 min. After 20 min of incubation, 60 μM menadione was added and incubated at 37° C. for 40 min after mixing of 1 min. Finally, the optical density of the suspension was measured at 470 nm by using microplate reader.

[2] = tested on: THP-1 (Human acute leukemia cells) cell lines; experiment: Cytotoxicity studies (MTT assay); type: cell-based; settings: for inhibition at 100 µg/mL: Homo sapiens, THP-1, 100 μg/ml, 72 h, MTT, read-out: % Inhibition on Thp-1 cell line at 100 μg/ml
Protocol: Compounds 3 was tested at IC90 values and also at higher concentration, 100 μg/ml, for their in vitro cytotoxicity against THP-1 (Human acute leukemia cells) cell lines procured from National Cell Repository, India.
About 10,000 cells were taken per well in 96-well tissue culture plates and treated with compound 3 at IC90 values and also at higher concentration, 100 μg/ml for 72 h. Vehicle control (DMSO, 1%) and positive control (Paclitaxel, 100 μg/ml) were run simultaneously. Cell proliferation was assessed with 10 μl from 5 mg/ml stock solution of tetrazolium salt (MTT) dissolved in cell culture medium and subsequently incubated for additional 1 h at 37° C., 5% of CO2 and 95% humidity in incubator. The violet coloured formazan crystals formed were solubilized in 200 μl of isopropanol and incubated for another 4 h. The optical density was read on a micro plate reader (Spectramax plus384 plate reader, Molecular Devices Inc) at 490 nm filter against a blank prepared from cell-free wells. Absorbance given by cells treated with the carrier DMSO alone was taken as 100% cell growth. All experiments were performed in triplicate, and the quantitative value was expressed as the average±standard deviation.

[3] = Mycobacterium tuberculosis, H37RA

In the case of `C=C[C@@]1(C)CC[C@@]2(O)[C@]3(CC[C@@]4(OO3)C(C)(C)CCC[C@]24C)C1` [Compound 1, pimarane-5,8-peroxide], the inhibition at 100 µg/mL [1, 3] is reported as 42.9% and the “antimycobacterial activity against M. tuberculosis (in words)” value (“antimycobacterial activity” for short) [1] is reported as “effective”.

With `C=C[C@@]1(C)CC[C@H]2[C@@](O)(C[C@@H](O)[C@@]3(O)C(C)(C)CCC[C@]23C)C1` [Compound 2, pimarane-triol] the IC90 ([1]; Mycobacterium tuberculosis) was 20 µg/mL (≈ 62 µM) and the “antimycobacterial activity” value [1] was “effective”.

`C=C[C@@]1(C)CC[C@@]2(O)[C@@](O)(C[C@@H](O)[C@@]3(O)C(C)(C)CCC[C@]23C)C1` [Compound 3, pimarane-tetrol] was tested, and the inhibition at 100 µg/mL [1, 3] was 35%, the “antimycobacterial activity” value [1] was “effective” and the inhibition at 100 µg/mL [2] was 57.2%. The “anti-cancer activity against THP-1 cell lines (in words)” value ([2]; in vitro) was “showed anti-cancer activity; also recorded: comparable to that of known standard drug, paclitaxel”.

In the case of `C=CCc1ccc(O)c(O)c1` [Compound 4, Hydroxychavicol], the IC50 ([1]; Mycobacterium tuberculosis, H37RA, read-out: IC50 against growth of M. tuberculosis (footnote d)) is reported as 12.5 µg/mL (≈ 83.2 µM) and the “antimycobacterial activity” value [1] is reported as “effective”.

Work on `NNC(=O)c1ccncc1` [Isoniazid, reference compound] yielded an IC90 ([1]; Mycobacterium tuberculosis) of 0.05 ± 0.003 µg/mL (≈ 0.365 µM).

Molecule `CC(=O)O[C@H]1C(=O)[C@@]2(C)[C@H]([C@H](OC(=O)c3ccccc3)[C@]3(O)C[C@H](OC(=O)[C@H](O)[C@@H](NC(=O)c4ccccc4)c4ccccc4)C(C)=C1C3(C)C)[C@]1(OC(C)=O)CO[C@@H]1C[C@@H]2O` [Paclitaxel, reference compound] has an inhibition at 100 µg/mL [2] of 61%.
